# Source: patent US11236055B2 (Venenum Biodesign, LLC, priority 2016, dated 2022)
# Read-outs that look alike come from different tables or passages of the source.
# Columns and labels:
# [1] = tested on: GLP-1 levels in the blood of male C57BL/6NTac mice; test: In vivo mouse GLP-1 study, single oral dose; details: 10 mg/kg oral, 4 h post-dose, sitagliptin 3 mg/kg pre-dose
# Method: In Vivo Mouse GLP-1 Study
# 12-14 week old male C57BL/6NTac (Taconic) mice were divided into experimental groups (n=6) by randomizing mice based on pre-fasting body weight and then were fasted overnight. On experiment day, all mice were dosed with 3 mg/kg sitagliptin via oral gavage exactly 1 hour before oral gavage dosing of vehicle (0.5% carboxymethylcellulose (medium viscosity)+0.25% Tween-80) or 10 mg/kg compound in vehicle. Four (4) hours following the administration of compound, blood was collected via cardiac puncture. For the GLP-1 assay, 200-250 μL of blood was placed in an EDTA K^2+ tube containing 5 μL of 40 mg/mL aprotinin (Sigma A1153) and 1 μL of 10 mM sitagliptin (Sigma S8576) and plasma was separated by centrifugation. Plasma samples were stored at −20° C. until analysis. The active form of GLP-1 [GLP-1 (7-36) amide] was analyzed using Meso Scale Discovery System according to the manufacturer's directions (item number K150HYC). Values of p<0.05 are considered statistically significant.
# The active GLP-1 assay results from the mice in vivo study are shown in Table 36 and FIG. 1, expressed as fold change over vehicle.
# DIO mice = test: Food intake after multiple days of dosing in DIO mice; type: in vivo, mouse; details: DIO mice on high fat diet, oral BID for 12 days
# Method: Monitoring of Food Intake after Multiple Days of Dosing Compounds
# Compounds of the present invention were dosed for multiple days and were evaluated for their ability to cause mice to have a lower food intake. Mice were dosed compounds for 12 days as per the protocol in Example 66.
# The HFD (Research Diets, D12492, 60% fat kcal) is placed at the bottom of the cage of a singly-housed animal. The remaining food in each cage is recovered and weighed again at the same time of day 3 or 4 days later. The difference in the starting and ending food weight represents the amount of food consumed. Daily food intake is calculated by averaging over a 3 or 4 day period every week.
# [2] = Portal vein versus systemic pharmacokinetics in hepatic portal vein cannulated rats; type: in vivo, rat; details: portal vein cannulated male CD (SD) rats, 10 mg/kg oral; for Cmax / Tmax / AUC(0-t): rat; for AUC(0-t): read-out: AUC (0-7 h)
# Method: Low Level of Compounds is Attributed to Low Intestinal Absorption
# In this study, it was determined if the low plasma level of the compounds of the present invention is due to low absorption in the gut, or due to the first pass effect (i.e., absorption followed by a rapid degradation of compounds by liver). Hepatic portal vein cannulated male CD (SD) rats obtained from Charles River Laboratory were utilized. In brief, Compound 20BG was administered orally at 10 mg/kg, and blood was obtained simultaneously from the portal vein and systemic circulation (retro-orbital sinus) at pre-dose, 0.25, 0.5, 1, 2, and 4 hours post-dose, in EDTA coated tubes. The samples were processed into plasma and quantification of compound levels in the plasma was accomplished by means of LC-MS/MS analysis as described in Example 59.
# [3] = Bile weight after multiple days of dosing in DIO mice; type: in vivo, mouse; details: 12 days of dosing, about 6 h after final dose
# Method: No Bile Weight Increase after Multiple Days of Dosing Compounds
# Compounds of the present invention were dosed for multiple days and evaluated for an increase in bile weight within the gallbladder. In this example, the protocol from Example 66 was utilized. In week 2 of the study, mice were euthanized and bile was removed from the gallbladder about 6 hours after the final dose and the bile was weighed to approximate the volume of bile contained within the bladder.
# mouse TGR5 receptor = target: T1, mouse TGR5 receptor (Mus musculus, UniProt Q80SS6); test: Mouse TGR5 cAMP production assay (luminescent, DiscoveRx cAMP XS+); type: cell-based; details: HEK293-EBNA cells overexpressing mouse TGR5, luminescent cAMP XS+; coded A-D; read-out: Mouse TGR5 Lum. cAMP Activity (EC50)
# T1 construct: expressed in transfected cells; host or cells: HEK293-EBNA (293 c18, ATCC CRL10852), Hygromycin B selection
# T1 sequence (Q80SS6 1-329): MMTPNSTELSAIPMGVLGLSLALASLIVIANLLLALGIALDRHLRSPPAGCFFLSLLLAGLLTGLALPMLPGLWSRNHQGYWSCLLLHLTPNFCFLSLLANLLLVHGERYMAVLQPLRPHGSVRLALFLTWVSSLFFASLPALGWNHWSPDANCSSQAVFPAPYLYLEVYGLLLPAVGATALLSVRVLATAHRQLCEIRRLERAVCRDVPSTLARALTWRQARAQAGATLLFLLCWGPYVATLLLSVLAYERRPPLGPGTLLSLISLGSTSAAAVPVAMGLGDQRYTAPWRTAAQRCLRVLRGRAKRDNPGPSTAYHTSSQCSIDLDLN
# Summary of the method: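 HEK293-EBNA cells stably expressing mouse TGR5 were suspended in serum-free DMEM with 500 μM IBMX and preincubated 20 min with cAMP antibody. They were then exposed to half-log compound dilutions for 1 h at room temperature. cAMP measured by enzyme-fragment complementation luminescence after overnight incubation; EC50 derived.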
# [4] = portal vein plasma, Portal Vein bleed
# [5] = systemic plasma (retro-orbital sinus), Peripheral bleed (retro-orbital sinus)
SMILES,"Fold Increase (active GLP-1, fold change over vehicle) [1]",also measured
"CCc1cnccc1-c1cccc(C(C)(C)N(CCCC(=O)NCCS(=O)(=O)O)S(=O)(=O)c2cccc(Cl)c2C)c1 [Compound 20AC, 2-(4-(3-chloro-N-(2-(3-(3-ethylpyridin-4-yl)phenyl)propan-2-yl)-2-methylphenylsulfonamido)butanamido)ethanesulfonic acid]",1.2,–
"CCc1cnccc1-c1cccc([C@H](C)N(CCCC(=O)NCCCS(=O)(=O)O)S(=O)(=O)c2cccc(Cl)c2C)c1 [Compound 20AM, (S)-3-(4-(3-chloro-N-(1-(3-(3-ethylpyridin-4-yl)phenyl)ethyl)-2-methylphenylsulfonamido)butanamido)propane-1-sulfonic acid]",2.3,–
"Cc1cnccc1-c1cccc(C(C)(C)N(CCCC(=O)NCC(=O)O)S(=O)(=O)c2cccc(Cl)c2C)c1 [Compound 21AB, 2-(4-(3-chloro-2-methyl-N-(2-(3-(3-methylpyridin-4-yl)phenyl)propan-2-yl)phenylsulfonamido)butanamido)acetic acid]",3.0,–
"CCc1cnccc1-c1cccc([C@H](C)N(CCCC(=O)NCCS(=O)(=O)NCC(=O)O)S(=O)(=O)c2cccc(Cl)c2C)c1 [Compound 21AT, (S) 2-(3-(4-(3-chloro-2-methyl-N-(1-(3-(3-ethylpyridin-4-yl)phenyl)ethyl)phenylsulfonamido)butanamido)ethylsulfonamido)acetic acid]",4.2,–
"Cc1cnccc1-c1cccc(C(C)(C)N(CCCC(=O)NCCCS(=O)(=O)O)S(=O)(=O)c2cccc(Cl)c2C)c1 [Compound 20AD, 3-(4-(3-chloro-2-methyl-N-(2-(3-(3-methylpyridin-4-yl)phenyl)propan-2-yl)phenylsulfonamido)butanamido)propane-1-sulfonic acid]",1.9,–
CCc1cnccc1-c1cccc([C@H](C)N(CCCC(=O)NCCS(=O)(=O)NCC(=O)O)S(=O)(=O)c2ccccc2C(F)(F)F)c1 [Compound 20BG],4.4,"food intake (DIO mice): no significant effect; absorption (PK in portal vein and systemic circulation) [2]: very low absorption; Cmax [2, 4]: 7.6 ± 3.6 ng/mL; Tmax [2, 4]: 15 to 120 min; AUC(0-t) [2, 4]: 30.1 ± 0.9 ng·h/mL; Cmax [2, 5]: 1.3 ± 0.7 ng/mL; Tmax [2, 5]: 15 to 60 min; AUC(0-t) [2, 5]: 3.1 ± 10.8 ng·h/mL; bile weight / gallbladder size [3]: does not show an increase"
"CCc1cnccc1-c1cccc(C(C)(C)N(CCCC(=O)NCCS(=O)(=O)O)S(=O)(=O)c2ccccc2C(F)(F)F)c1 [Compound 20, 2-(4-(N-(2-(3-(3-ethylpyridin-4-yl)phenyl)propan-2-yl)-2-(trifluoromethyl)-phenylsulfonamido)butanamido)ethanesulfonic acid]",1.0,–
Cc1cnccc1-c1cccc([C@H](C)N(CCCC(=O)NCCS(=O)(=O)NCCCC(=O)O)S(=O)(=O)c2ccccc2C(F)(F)F)c1 [Compound 20BK],1.3,–
"Cc1cnccc1-c1cccc([C@H](C)N(CCCCC(=O)NCCS(=O)(=O)NCC(=O)O)S(=O)(=O)c2ccccc2C(F)(F)F)c1 [Compound 20BL, (S) 2-(4-(N-(1-(3-(3-methylpyridin-4-yl)phenyl)ethyl)-2-(trifluoromethyl)phenylsulfonamidopentanamido)ethylsulfonamido)acetic acid]",2.1,–
"Cc1cnccc1-c1cccc(C(C)(C)N(CCCC(=O)NCCS(=O)(=O)NCC(=O)O)S(=O)(=O)c2cccc(Cl)c2C)c1 [Compound 20AW, (4-(3-chloro-2-methyl-N-(2-(3-(3-methylpyridin-4-yl)phenyl)propan-2-yl)phenylsulfonamido)-N-butanamidoethylsulfonamido)acetic acid]",1.1,–
"Cc1cnccc1-c1cccc(C(C)(C)N(CCCC(=O)NC[C@@H](O)[C@H](O)[C@@H](O)[C@@H](O)CO)S(=O)(=O)c2cccc(Cl)c2C)c1 [Compound 20AF, 4-(3-chloro-2-methyl-N-(2-(3-(3-methylpyridin-4-yl)phenyl)propan-2-yl)phenylsulfonamido)-N-((2R,3S,4S,5S)-2,3,4,5,6-pentahydroxyhexyl)butanamide]",0.8,–
"Cc1cnccc1-c1cccc(C(C)(C)N(CCCC(=O)NCCS(=O)(=O)O)S(=O)(=O)c2ccccc2C(F)(F)F)c1 [Compound 20AA, 2-(4-(N-(2-(3-(3-methylpyridin-4-yl)phenyl)propan-2-yl)-2-(trifluoromethyl)phenylsulfonamido)butanamido)ethanesulfonic acid]",3.3,–
"CCc1cnccc1-c1cccc(C(C)(C)NS(=O)(=O)c2ccccc2C(F)(F)F)c1 [Compound 5, N-(2-(3-(3-ethylpyridin-4-yl)phenyl)propan-2-yl)-2-(trifluoromethyl)benzenesulfonamide]",–,EC50 (mouse TGR5 receptor): < 100 nM
"CCc1cnccc1-c1cccc([C@H](C)N(CCCC(=O)NCCS(=O)(=O)O)S(=O)(=O)c2ccccc2C(F)(F)F)c1 [Compound 20BF, (S)-2-(4-(N-(1-(3-(3-ethylpyridin-4-yl)phenyl)ethyl)-2-(trifluoromethyl)phenylsulfonamido)butanamido)ethanesulfonic acid]",2.9,–
"CCc1cnccc1-c1cccc([C@H](C)N(CCCC(=O)NCCS(=O)(=O)O)S(=O)(=O)c2cccc(Cl)c2C)c1 [Compound 21AQ, (S)-2-(4-(3-chloro-N-(1-(3-(3-ethylpyridin-4-yl)phenyl)ethyl)-2-methylphenylsulfonamido)butanamido)ethanesulfonic acid]",2.0,–
"Cc1cnccc1-c1cccc(C(C)(C)NS(=O)(=O)c2cccc(C(F)(F)F)c2)c1 [Compound 5AA, N-(2-(3-(3-methylpyridin-4-yl)phenyl)propan-2-yl)-3-(trifluoromethyl)benzenesulfonamide]",–,EC50 (mouse TGR5 receptor): < 100 nM
